Laboratory results from PubChem BioAssay (NCI).
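Each compound was tested at five concentrations against cells in 96-well plates for 48 hours. Abbreviation: GI50, concentration required for 50% inhibition of growth. TGI is the concentration that stops growth completely.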

Legend:
Experiment in all cases: NCI anticancer screen, dose series, 48 h
IGROV1 ovarian = system: IGROV1 ovarian
CAKI-1 renal = system: CAKI-1 renal
K-562 leukemia = system: K-562 leukemia
TK-10 renal = system: TK-10 renal
HCC-2998 colon = system: HCC-2998 colon
KM12 colon = system: KM12 colon
EKVX NSCLC = system: EKVX NSCLC
SF-295 CNS = system: SF-295 CNS
OVCAR-3 ovarian = system: OVCAR-3 ovarian
HCT-15 colon = system: HCT-15 colon
SK-OV-3 ovarian = system: SK-OV-3 ovarian
BT-549 breast = system: BT-549 breast
COLO 205 colon = system: COLO 205 colon
HCT-116 colon = system: HCT-116 colon
MOLT-4 leukemia = system: MOLT-4 leukemia
U251 CNS = system: U251 CNS
A498 renal = system: A498 renal
SR leukemia = system: SR leukemia
RXF 393 renal = system: RXF 393 renal
786-0 renal = system: 786-0 renal
SK-MEL-2 melanoma = system: SK-MEL-2 melanoma
NCI-H522 lung = system: NCI-H522 lung
RPMI-8226 leukemia = system: RPMI-8226 leukemia
MALME-3M melanoma = system: MALME-3M melanoma
MDA-MB-435 = system: MDA-MB-435
LOX IMVI melanoma = system: LOX IMVI melanoma
SN12C renal = system: SN12C renal
UACC-257 melanoma = system: UACC-257 melanoma
A549 NSCLC = system: A549 NSCLC
SK-MEL-28 melanoma = system: SK-MEL-28 melanoma
CCRF-CEM leukemia = system: CCRF-CEM leukemia
M14 melanoma = system: M14 melanoma
MDA-MB-231 breast = system: MDA-MB-231 breast
PC-3 prostate = system: PC-3 prostate
HS 578T breast = system: HS 578T breast
SK-MEL-5 melanoma = system: SK-MEL-5 melanoma
MCF7 breast = system: MCF7 breast
UO-31 renal = system: UO-31 renal
OVCAR-5 ovarian = system: OVCAR-5 ovarian
OVCAR-4 ovarian = system: OVCAR-4 ovarian
NCI-H460 lung = system: NCI-H460 lung
SF-539 CNS = system: SF-539 CNS
UACC-62 melanoma = system: UACC-62 melanoma
SNB-19 CNS = system: SNB-19 CNS
NCI/ADR-RES ovarian = system: NCI/ADR-RES ovarian
OVCAR-8 ovarian = system: OVCAR-8 ovarian
SNB-75 CNS = system: SNB-75 CNS
NCI-H23 lung = system: NCI-H23 lung
NCI-H226 lung = system: NCI-H226 lung
DU-145 prostate = system: DU-145 prostate
ACHN renal = system: ACHN renal
T-47D breast = system: T-47D breast
HOP-62 NSCLC = system: HOP-62 NSCLC
HL-60(TB) leukemia = system: HL-60(TB) leukemia
SF-268 CNS = system: SF-268 CNS
SW-620 colon = system: SW-620 colon
HT29 colon = system: HT29 colon

SMILES: CS(=O)(=O)CCN(CC#N)Cc1ccc(-c2ccc3ncnc(Nc4ccc(OCc5cccc(F)c5)c(Cl)c4)c3c2)o1
- GI50 (IGROV1 ovarian): 6.25 µM
- TGI (IGROV1 ovarian): > 25 µM
- GI50 (CAKI-1 renal): 0.896 µM
- TGI (CAKI-1 renal): > 25 µM
- GI50 (K-562 leukemia): 9.98 µM
- TGI (K-562 leukemia): > 25 µM
- GI50 (TK-10 renal): 1.19 µM
- TGI (TK-10 renal): > 25 µM
- GI50 (HCC-2998 colon): 15.1 µM
- TGI (HCC-2998 colon): > 25 µM
- GI50 (KM12 colon): 9.34 µM
- TGI (KM12 colon): > 25 µM
- GI50 (EKVX NSCLC): 0.313 µM
- TGI (EKVX NSCLC): > 25 µM
- GI50 (SF-295 CNS): 24.7 µM
- TGI (SF-295 CNS): > 25 µM
- GI50 (OVCAR-3 ovarian): 10.6 µM
- TGI (OVCAR-3 ovarian): > 25 µM
- GI50 (HCT-15 colon): 10.2 µM
- TGI (HCT-15 colon): > 25 µM
- GI50 (SK-OV-3 ovarian): 0.107 µM
- TGI (SK-OV-3 ovarian): > 25 µM
- GI50 (BT-549 breast): 15.6 µM
- TGI (BT-549 breast): > 25 µM
- GI50 (COLO 205 colon): > 19.1 µM
- TGI (COLO 205 colon): > 25 µM
- GI50 (HCT-116 colon): 11 µM
- TGI (HCT-116 colon): > 25 µM
- GI50 (MOLT-4 leukemia): 8.81 µM
- TGI (MOLT-4 leukemia): > 25 µM
- GI50 (U251 CNS): 15.2 µM
- TGI (U251 CNS): > 25 µM
- GI50 (A498 renal): 4.29 µM
- TGI (A498 renal): > 23.7 µM
- GI50 (SR leukemia): 8.93 µM
- TGI (SR leukemia): > 25 µM
- GI50 (RXF 393 renal): 10.8 µM
- TGI (RXF 393 renal): > 23.5 µM
- GI50 (786-0 renal): 14.9 µM
- TGI (786-0 renal): > 25 µM
- GI50 (SK-MEL-2 melanoma): 17.3 µM
- TGI (SK-MEL-2 melanoma): > 25 µM
- GI50 (NCI-H522 lung): 4.3 µM
- TGI (NCI-H522 lung): > 18.5 µM
- GI50 (RPMI-8226 leukemia): 11.7 µM
- TGI (RPMI-8226 leukemia): > 25 µM
- GI50 (MALME-3M melanoma): 14.9 µM
- TGI (MALME-3M melanoma): > 25 µM
- GI50 (MDA-MB-435): 11 µM
- TGI (MDA-MB-435): > 25 µM
- GI50 (LOX IMVI melanoma): 6.52 µM
- TGI (LOX IMVI melanoma): 19.8 µM
- GI50 (SN12C renal): 12.7 µM
- TGI (SN12C renal): > 25 µM
- GI50 (UACC-257 melanoma): > 25 µM
- TGI (UACC-257 melanoma): > 25 µM
- GI50 (A549 NSCLC): 14.6 µM
- TGI (A549 NSCLC): > 25 µM
- GI50 (SK-MEL-28 melanoma): > 25 µM
- TGI (SK-MEL-28 melanoma): > 25 µM
- GI50 (CCRF-CEM leukemia): 9.45 µM
- TGI (CCRF-CEM leukemia): > 25 µM
- GI50 (M14 melanoma): 11.7 µM
- TGI (M14 melanoma): > 25 µM
- GI50 (MDA-MB-231 breast): 8.35 µM
- TGI (MDA-MB-231 breast): > 25 µM
- GI50 (PC-3 prostate): 10.9 µM
- TGI (PC-3 prostate): > 25 µM
- GI50 (HS 578T breast): 6.13 µM
- TGI (HS 578T breast): > 20.4 µM
- GI50 (SK-MEL-5 melanoma): 4.91 µM
- TGI (SK-MEL-5 melanoma): > 25 µM
- GI50 (MCF7 breast): 8.66 µM
- TGI (MCF7 breast): > 25 µM
- GI50 (UO-31 renal): 5.56 µM
- TGI (UO-31 renal): > 25 µM
- GI50 (OVCAR-5 ovarian): 7.89 µM
- TGI (OVCAR-5 ovarian): > 25 µM
- GI50 (OVCAR-4 ovarian): 11.4 µM
- TGI (OVCAR-4 ovarian): > 25 µM
- GI50 (NCI-H460 lung): 10.9 µM
- TGI (NCI-H460 lung): > 25 µM
- GI50 (SF-539 CNS): > 25 µM
- TGI (SF-539 CNS): > 25 µM
- GI50 (UACC-62 melanoma): > 22.3 µM
- TGI (UACC-62 melanoma): > 25 µM
- GI50 (SNB-19 CNS): > 25 µM
- TGI (SNB-19 CNS): > 25 µM
- GI50 (NCI/ADR-RES ovarian): 8.17 µM
- TGI (NCI/ADR-RES ovarian): > 25 µM
- GI50 (OVCAR-8 ovarian): 9.75 µM
- TGI (OVCAR-8 ovarian): > 25 µM
- GI50 (SNB-75 CNS): > 17.1 µM
- TGI (SNB-75 CNS): > 25 µM
- GI50 (NCI-H23 lung): 13.2 µM
- TGI (NCI-H23 lung): > 25 µM
- GI50 (NCI-H226 lung): > 25 µM
- TGI (NCI-H226 lung): > 25 µM
- GI50 (DU-145 prostate): 10.5 µM
- TGI (DU-145 prostate): > 25 µM
- GI50 (ACHN renal): 1.73 µM
- TGI (ACHN renal): > 25 µM
- GI50 (T-47D breast): 5.48 µM
- TGI (T-47D breast): > 23.7 µM
- GI50 (HOP-62 NSCLC): > 25 µM
- TGI (HOP-62 NSCLC): > 25 µM
- GI50 (HL-60(TB) leukemia): 11.2 µM
- TGI (HL-60(TB) leukemia): > 25 µM
- GI50 (SF-268 CNS): 16 µM
- TGI (SF-268 CNS): > 25 µM
- GI50 (SW-620 colon): 11.7 µM
- TGI (SW-620 colon): > 25 µM
- GI50 (HT29 colon): 10.3 µM
- TGI (HT29 colon): > 25 µM
